According to ChEMBL document CHEMBL6120958, “A Highly Atom-Efficient Prodrug Approach to Generate Synergy between H2S and Nonsteroidal Anti-inflammatory Drugs and Improve Safety” (J Med Chem, 2024):
Active and inactive are the calls of the source. No cut-off for these calls is given here.

Experiments:
[1] = Toxicity against collagen-induced arthritis Wistar rat model assessed as increase in body weight at 33.7 umol/kg, po administered for 28 days; type: organism-based; conditions: in vivo, 672 h, at 33.7 µmol/kg, time 28 day
[2] = Stability of the compound in PBS at 500 uM measured for 3 months at pH 7.4 at -20 degC by HPLC analysis; type: physicochemical; conditions: buffer, pH 7.4, 2190 h
[3] = Toxicity against collagen-induced arthritis Wistar rat model assessed as gastric ulceration at 16.8 umol/kg, po administered for 28 days; type: organism-based; conditions: in vivo, 672 h, dose 16.8 µmol/kg, time 28 day
Rattus norvegicus [4] = test: Antiinflammatory activity against collagen-induced arthritis Wistar rat model assessed as reduction in toe swelling at 33.7 umol/kg, po administered for 28 days via gavage; type: functional, organism-based; conditions: dose 33.7 µmol/kg, time 28.0 day
[5] = Cardiotoxicity against Sprague-Dawley rat assessed as cTnI level in serum at 14.2 mg/kg, ip administered for 6 days (reference value: 1.9 +/-0.2 ng/ml); type: toxicity, organism-based; conditions: in vivo, 144 h, time 6 day
[6] = Stability of the compound in rat plasma assessed as half life by LC-MS/MS analysis; type: ADME, cell-free
[7] = Toxicity against Sprague-Dawley rat assessed as elevation of beneficial gut probiotics(Prevotellaceae and Erysipelotrichaceae) at 10.5 mg/kg, po administered via gavage for 7 days and measured at 2 hrs post-last drug dosage by Kruskal-Wallis H test; type: organism-based; conditions: in vivo, 168 h, time 7 day
[8] = Stability of the compound in PBS at 500 uM measured within 144 hrs at pH 7.4 at 37 degC by HPLC analysis; type: physicochemical; conditions: buffer, pH 7.4, 144 h
[9] = Toxicity against collagen-induced arthritis Wistar rat model assessed as glutathione level in liver at 33.7 umol/kg, po administered for 28 days; type: organism-based; conditions: in vivo, 672 h, dose 33.7 µmol/kg, time 28 day
Rattus norvegicus [10] = test: Antiinflammatory activity against collagen-induced arthritis Wistar rat model assessed as increase in IL-10 level in serum at 33.7 umol/kg, po administered for 28 days via gavage by ELISA; type: functional, organism-based; conditions: dose 33.7 µmol/kg, time 28.0 day
[11] = Toxicity against collagen-induced arthritis Wistar rat model assessed as AST level in serum at 33.7 umol/kg, po administered for 28 days; type: organism-based; conditions: in vivo, 672 h, dose 33.7 µmol/kg, time 28 day
[12] = Toxicity against Sprague-Dawley rat assessed as dysbiosis in gut microbiota at 10.5 mg/kg, po administered via gavage for 7 days and measured at 2 hrs post-last drug dosage by 16S rRNA amplicon sequencing based PCA analysis; type: organism-based; conditions: in vivo, 168 h, time 7 day
[13] = Toxicity against collagen-induced arthritis Wistar rat model assessed as decrease in SOD activity in liver at 33.7 umol/kg, po administered for 28 days; type: organism-based; conditions: in vivo, 672 h, dose 33.7 µmol/kg, time 28 day
[14] = Cardiotoxicity against Sprague-Dawley rat assessed as MDA level in heart at 14.2 mg/kg, ip administered for 6 days; type: toxicity, organism-based; conditions: in vivo, 144 h, time 6 day
[15] = Toxicity against Sprague-Dawley rat assessed as preservation of integrity of jejunal vili without crypt damage and less glandular structure loss in colon at 10.5 mg/kg, po administered via gavage for 7 days and measured at 2 hrs post-last drug dosage by Hematoxylin-Eosin staining based analysis; type: organism-based; conditions: in vivo, 168 h, time 7 day
[16] = Drug metabolism in Wistar rat assessed as DCF level in blood at 10.5 mg/kg, po administered via gavage measured after 5 mins by LC-MS/MS analysis; type: ADME, organism-based; conditions: in vivo
[17] = Toxicity against Sprague-Dawley rat assessed as diarrhea at 10.5 mg/kg, po administered via gavage for 7 days; type: organism-based; conditions: in vivo, 168 h, time 7 day
[18] = Toxicity against collagen-induced arthritis Wistar rat model assessed as preserved mucosa integrity without gastrointestinal damage at 33.7 umol/kg, po administered for 28 days by Hematoxylin-Eosin staining based analysis; type: organism-based; conditions: in vivo, 672 h, dose 33.7 µmol/kg, time 28 day
[19] = Cardiotoxicity against Sprague-Dawley rat assessed as striated muscle recovery with reduced vacuolation in heart at 14.2 mg/kg, ip administered for 6 days by Hematoxylin-Eosin staining analysis; type: toxicity, organism-based; conditions: in vivo, 144 h, time 6 day
[20] = Toxicity against collagen-induced arthritis Wistar rat model assessed as increase in body weight at 16.8 umol/kg, po administered for 28 days; type: organism-based; conditions: in vivo, 672 h, at 16.8 µmol/kg, time 28 day
Rattus norvegicus [21] = test: Antiinflammatory activity against collagen-induced arthritis Wistar rat model assessed as reduction in IL-1 beta level in serum at 33.7 umol/kg, po administered for 28 days via gavage by ELISA; type: functional, organism-based; conditions: dose 33.7 µmol/kg, time 28.0 day
[22] = Cardiotoxicity against Sprague-Dawley rat assessed as decrease in cleaved caspase-3 level in heart at 14.2 mg/kg, ip administered for 6 days by immunofluorescence staining analysis; type: toxicity, organism-based; conditions: in vivo, 144 h, time 6 day
[23] = Toxicity against collagen-induced arthritis Wistar rat model assessed as uric acid level in serum at 33.7 umol/kg, po administered for 28 days; type: organism-based; conditions: in vivo, 672 h, dose 33.7 µmol/kg, time 28 day
[24] = Toxicity against collagen-induced arthritis Wistar rat model assessed as decrease in CAT activity in kidney at 33.7 umol/kg, po administered for 28 days; type: organism-based; conditions: in vivo, 672 h, dose 33.7 µmol/kg, time 28 day
[25] = Toxicity against C57BL/6J mouse assessed as AST level in serum at 506 umol/kg, ip measured after 24 hrs; type: organism-based; conditions: in vivo, dose 506 µmol/kg
[26] = Drug metabolism in Wistar rat assessed as DCF level in blood at 10.5 mg/kg, po administered via gavage measured after 10 mins by LC-MS/MS analysis; type: ADME, organism-based; conditions: in vivo
[27] = Cardiotoxicity against Sprague-Dawley rat assessed as SOD level in heart at 14.2 mg/kg, ip administered for 6 days; type: toxicity, organism-based; conditions: in vivo, 144 h, time 6 day
[28] = Toxicity against Sprague-Dawley rat assessed as potentially pathogenic bacteria (Clostridiaceae and Peptostreptococcaceae) level at 10.5 mg/kg, po administered via gavage for 7 days and measured at 2 hrs post-last drug dosage by Kruskal-Wallis H test; type: organism-based; conditions: in vivo, 168 h, time 7 day
[29] = Toxicity against Sprague-Dawley rat assessed as apoptosis in intestine at 10.5 mg/kg, po administered via gavage for 7 days and measured at 2 hrs post-last drug dosage by TUNEL immunofluorescence staining; type: organism-based; conditions: in vivo, 168 h, time 7 day
[30] = biological target: T1, Prostaglandin G/H synthase 1 (Ovis aries, UniProt P05979); test: Inhibition of ovine COX1 assessed as reduction in PGF2alpha production using arachidonic acid as substrate preincubated with enzyme for 10 mins followed by substrate addition and measured after 2 mins by ELISA
T1 sequence (P05979 whole entry): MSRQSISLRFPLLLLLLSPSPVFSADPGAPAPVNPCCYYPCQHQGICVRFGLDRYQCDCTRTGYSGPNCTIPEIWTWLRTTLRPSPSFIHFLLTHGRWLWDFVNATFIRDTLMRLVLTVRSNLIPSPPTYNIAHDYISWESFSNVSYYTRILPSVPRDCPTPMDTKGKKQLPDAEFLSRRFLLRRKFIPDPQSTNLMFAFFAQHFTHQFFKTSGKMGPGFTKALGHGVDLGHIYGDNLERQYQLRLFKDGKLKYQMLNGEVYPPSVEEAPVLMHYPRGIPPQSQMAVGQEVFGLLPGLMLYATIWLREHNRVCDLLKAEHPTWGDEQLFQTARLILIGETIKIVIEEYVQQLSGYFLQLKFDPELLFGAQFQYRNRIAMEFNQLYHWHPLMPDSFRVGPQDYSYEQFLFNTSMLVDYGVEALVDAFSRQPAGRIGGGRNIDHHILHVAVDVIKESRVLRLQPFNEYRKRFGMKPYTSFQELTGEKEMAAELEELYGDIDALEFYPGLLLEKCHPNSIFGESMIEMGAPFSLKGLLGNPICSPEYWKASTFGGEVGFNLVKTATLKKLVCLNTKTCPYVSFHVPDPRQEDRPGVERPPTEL

[31] = Stability in Wistar rat assessed as parent drug level in blood at 10.5 mg/kg, po administered via gavage measured after 5 mins by LC-MS/MS analysis; type: ADME, organism-based; conditions: in vivo
[32] = Oral bioavailability in Wistar rat at 10.5 mg/kg; type: ADME, organism-based; conditions: in vivo
[33] = Toxicity against C57BL/6J mouse assessed as ALT level in serum at 506 umol/kg, ip measured after 24 hrs; type: organism-based; conditions: in vivo, dose 506 µmol/kg
[34] = Cardiotoxicity against Sprague-Dawley rat assessed as increase in Bcl-2 level in heart at 14.2 mg/kg, ip administered for 6 days by immunofluorescence staining analysis; type: toxicity, organism-based; conditions: in vivo, 144 h, time 6 day
[35] = Toxicity against collagen-induced arthritis Wistar rat model assessed as creatinine level in serum at 33.7 umol/kg, po administered for 28 days; type: organism-based; conditions: in vivo, 672 h, dose 33.7 µmol/kg, time 28 day
[36] = Cardiotoxicity against Sprague-Dawley rat assessed as myocardial fibrosis at 14.2 mg/kg, ip administered for 6 days by Masson staining analysis; type: toxicity, organism-based; conditions: in vivo, 144 h, time 6 day
[37] = Cardiotoxicity against Sprague-Dawley rat assessed as LDH level in serum at 14.2 mg/kg, ip administered for 6 days (reference value: 831.8 +/-23.1 U/L); type: toxicity, organism-based; conditions: in vivo, 144 h, time 6 day
[38] = Toxicity against Sprague-Dawley rat assessed as valeric acid and caproic acid in feces at 10.5 mg/kg, po administered via gavage for 7 days and measured at 2 hrs post-last drug dosage; type: organism-based; conditions: in vivo, 168 h, time 7 day
[39] = Toxicity against Sprague-Dawley rat assessed as decrease in crypt proliferation at 10.5 mg/kg, po administered via gavage for 7 days and measured at 2 hrs post-last drug dosage by Ki67 immunohistochemistry; type: organism-based; conditions: in vivo, 168 h, time 7 day

## O=C([S-])Cc1ccccc1Nc1c(Cl)cccc1Cl.[Na+]
[1]
  Activity: 8%
[2]
  Stability: Stable
[3]
  Activity: Non-toxic
Rattus norvegicus [4]
  Activity: Active
[5]
  Activity: 2.7 ng/mL
[6]
  half-life: 1.45 h
[7]
  Activity: Non-toxic
[8]
  Stability: Stable
[9]
  Activity: 1.2 µg/mg
Rattus norvegicus [10]
  Activity: Active
[11]
  Activity: 50.2 U/L
[12]
  Activity: Non-toxic
[13]
  Activity: Non-toxic
[14]
  Activity: Non-toxic
[15]
  Activity: Non-toxic
[16]
  Drug metabolism: 942.7 ng/mL
[17]
  Activity: Non-toxic
[18]
  Activity: Non-toxic
[19]
  Activity: Non-toxic
[20]
  Activity: 8%
Rattus norvegicus [21]
  Activity: Active
[22]
  Activity: Non-toxic
[23]
  Activity: 123.9 µmol/L
[24]
  Activity: Non-toxic
[25]
  Activity: 66.5 U/L
[26]
  Drug metabolism: 9755 ng/mL
[27]
  Activity: Non-toxic
[28]
  Activity: Non-toxic
[29]
  Activity: Non-toxic
[30]
  IC50: 35.9 nM
[31]
  Stability: 2330 ng/mL
[32]
  bioavailability: 80%
[33]
  Activity: 45.9 U/L
[34]
  Activity: Non-toxic
[35]
  Activity: 313.9 µmol/L
[36]
  Activity: Non-toxic
[37]
  Activity: 1165 U/L
[38]
  Activity: Non-toxic
[39]
  Activity: Non-toxic
